Data: patent US20230399341A1, “7-PHENYL SUBSTITUTED 2-AMINOQUINAZOLINE INHIBITORS OF HPK1” (MERCK SHARP & DOHME LLC, priority 2020, published 2023)

Target: T1, Human HPK1, catalytic domain (Homo sapiens, UniProt Q92918)
T1 sequence (Q92918 1-346): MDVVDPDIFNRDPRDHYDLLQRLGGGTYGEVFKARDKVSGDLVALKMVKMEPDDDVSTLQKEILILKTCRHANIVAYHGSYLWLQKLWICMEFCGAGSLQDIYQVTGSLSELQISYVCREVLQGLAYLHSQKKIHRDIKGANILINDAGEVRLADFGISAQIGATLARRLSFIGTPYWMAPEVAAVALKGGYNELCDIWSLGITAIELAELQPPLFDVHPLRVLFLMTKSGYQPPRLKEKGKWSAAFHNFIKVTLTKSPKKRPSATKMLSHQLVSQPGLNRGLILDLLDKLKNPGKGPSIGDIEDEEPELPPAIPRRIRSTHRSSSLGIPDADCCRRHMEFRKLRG
Experiment: HPK1-SLP76 TR-FRET Assay
Format: biochemical
Conditions: 75 pM HPK1, ATP 10 uM, SLP76 10 nM, 30 min pre-incubation, 60 min reaction

| SMILES | IC50 |
| --- | --- |
| COc1cc2c(cc1Nc1ncc3ccc(N4CC5(CCNCC5)OC4=O)cc3n1)CN(C)CC2 [Compound 3-5, 3-{2-[(6-methoxy-2-methyl-1,2,3,4-tetrahydroisoquinolin-7-yl)amino]quinazolin-7-yl}-1-oxa-3,8-diazaspiro[4.5]decan-2-one] | 205 nM |
| CNC(=O)C1CCc2cc(Nc3ncc4cc(F)c(-c5cnc6c(c5C)NCCO6)cc4n3)ccc21 (single isomer, unassigned) [Compound 1-118, (R or S)-5-{[6-fluoro-7-(8-methyl-2,3-dihydro-1H-pyrido[2,3-b][1,4]oxazin-7-yl)quinazolin-2-yl]amino}-N-methyl-2,3-dihydro-1H-indene-1-carboxamide] | 0.0363 nM |
| COc1cc2c(cc1Nc1ncc3ccc(NCC4CCS(=O)(=O)C4)cc3n1)CN(C)CC2 (racemic) [Compound 3-37, (S and R)-3-1({2-[(6-methoxy-2-methyl-1,2,3,4-tetrahydroiso-quinolin-7-yl)amino]quinazolin-7-yl}amino)methyl]-1lambda~ 6~-thiolane-1,1-dione] | 73.1 nM |
| Cc1c(-c2c(F)c(N)c3cnc(Nc4ccc(CS(C)(=O)=O)cc4F)nc3c2Cl)cnc2c1NCCO2 [Compound 2-135, 8-chloro-6-fluoro-N2-(2-fluoro-4-((methylsulfonyl)methyl)phenyl)-7-(8-methyl-2,3-dihydro-1H-pyrido[2,3-b][1,4]oxazin-7-yl)quinazoline-2,5-diamine] | 72.5 nM |
| Cc1c(-c2cc3nc(Nc4ccc(CS(=O)(=O)N5CCCC5)cc4)ncc3c(N)c2F)cnc2c1NCCO2 [Compound 2-115, 6-fluoro-7-(8-methyl-2,3-dihydro-1H-pyrido[2,3-b][1,4]oxazin-7-yl)-N~2~- {4-[(pyrrolidine-1-sulfonyl)methyl]phenyl} quinazoline-2,5-diamine] | 0.12 nM |
| COc1cc2c(cc1Nc1ncc3ccc(-c4cc(C)ccc4N4CCOC4=O)cc3n1)CN(C)CC2 [Compound 1-11, 3-(2-{2-[(6-methoxy-2-methyl-1,2,3,4-tetrahydroisoquinolin-7-yl)amino]quinazolin-7-yl}-4-methylphenyl)-1,3-oxazolidin-2-one] | 179 nM |
| COc1cc2c(cc1Nc1ncc3ccc(-c4cnn(C(F)F)c4)cc3n1)CN(C)CC2 [Compound 1-26, 7-[1-(difluoromethyl)-1H-pyrazol-4-yl]-N-(6-methoxy-2-methyl-1,2,3,4-tetrahydroisoquinolin-7-yl)quinazolin-2-amine] | 10.8 nM |
| Cc1c(-c2cc3nc(Nc4cc5c(cc4F)CCN(C(C)C)C5)ncc3c(N)c2F)cnc2c1NCCO2 [Compound 2-171, 6-fluoro-N~2~-[6-fluoro-2-(propan-2-yl)-1,2,3,4-tetrahydroisoquinolin-7-yl]-7-(8-methyl-2,3-dihydro-1H-pyrido[2,3-b][1,4]oxazin-7-yl)quinazoline-2,5-diamine] | 0.0507 nM |
| COc1cc2c(cc1Nc1ncc3ccc(N4C(=O)OC[C@@H]4C)cc3n1)CN(C)CC2 [Compound 3-2, (S)-3-{2-[(6-methoxy-2-methyl-1,2,3,4-tetrahydroisoquinolin-7-yl)amino]quinazolin-7-yl}-4-methyl-1,3-oxazolidin-2-one] | 1.79 nM |
| CCS(=O)(=O)Cc1ccc(Nc2ncc3c(N)c(F)c(-c4cnc5c(c4C)NCCO5)c(Cl)c3n2)cc1 [Compound 2-140, 8-chloro-N~2~-{4-[(ethylsulfonyl)methyl]phenyl}-6-fluoro-7-(8-methyl-2,3-dihydro-1H-pyrido[2,3-b][1,4]oxazin-7-yl)quinazoline-2,5-diamine] | 0.121 nM |
| CNC(=O)C1(c2ccc(Nc3ncc4c(N)c(F)c(-c5cnc6c(c5C)NCCO6)cc4n3)cc2)CC1 [Compound 2-81, 1-(4-((5-amino-6-fluoro-7-(8-methyl-2,3-dihydro-1H-pyrido[2,3-b][1,4]oxazin-7-yl)quinazolin-2-yl)amino)phenyl)-N-methylcyclopropane-1-carboxamide] | 0.0441 nM |
| CNC(=O)c1ccc(Nc2ncc3c(N)c(F)c(-c4cnc5c(c4C)NCCO5)c(Cl)c3n2)c(OC)c1 [Compound 2-97, (+ or −)-4-{[5-amino-8-chloro-6-fluoro-7-(8-methyl-2,3-dihydro-1H-pyrido[2,3-b][1,4]oxazin-7-yl)quinazolin-2-yl]amino}-3-methoxy-N-methylbenzamide] | 0.679 nM |
| COc1cc2c(cc1Nc1ncc3ccc(-c4ccc(S(N)(=O)=O)cc4C)cc3n1)CNCC2 [Compound 1-32, 4-{2-[(6-methoxy-1,2,3,4-tetrahydroisoquinolin-7-yl)amino]quinazolin-7-yl}-3-methylbenzene-1-sulfonamide] | 108 nM |
| Cc1c(-c2c(F)c(N)c3cnc(Nc4ccc(CS(=O)(=O)C5CC5)cc4)nc3c2Cl)cnc2c1NCCO2 [Compound 2-132, 8-chloro-N2-(4-((cyclopropylsulfonyl)methyl)phenyl)-6-fluoro-7-(8-methyl-2,3-dihydro-1H-pyrido[2,3-b][1,4]oxazin-7-yl)quinazoline-2,5-diamine] | 2.78 nM |
| Cc1c(-c2cc3nc(Nc4ccc5c(c4)C(C)(C)OC5=O)ncc3cc2F)cnc2c1NCCO2 [Compound 1-112, 5-{[6-fluoro-7-(8-methyl-2,3-dihydro-1H-pyrido[2,3-b][1,4]oxazin-7-yl)quinazolin-2-yl]amino}-3,3-dimethyl-2-benzofuran-1(3H)-one] | 5.2 nM |
| Cc1c(-c2cc3nc(Nc4ccc(C(C)S(C)(=O)=O)cc4)ncc3c(N)c2F)cnc2c1NCCO2 (single isomer, unassigned) [Compound 2-62, (R or S)-6-fluoro-7-(8-methyl-2,3-dihydro-1H-pyrido[2,3-b][1,4]oxazin-7-yl)-N˜2˜-{4-[1-(methylsulfonyl)ethyl]phenyl}quinazoline-2,5-diamine] | 0.0612 nM |
| Cc1c(-c2cc3nc(Nc4ccc(N5CCOC5=O)cc4)ncc3c(N)c2F)cnc2c1NCCO2 [Compound 2-67, 3-(4-{[5-amino-6-fluoro-7-(8-methyl-2,3-dihydro-1H-pyrido[2,3-b][1,4]oxazin-7-yl)quinazolin-2-yl]amino}phenyl)-1,3-oxazolidin-2-one] | 0.0508 nM |
| COc1cc2c(cc1Nc1ncc3ccc(-c4cc(C5(CO)CC5)ccc4OC)cc3n1)CNCC2 [Compound 1-74, [1-(4-methoxy-3-{2-[(6-methoxy-1,2,3,4-tetrahydroisoquinolin-7-yl)amino]quinazolin-7-yl}phenyl)cyclo-propyl]methanol] | 143 nM |
| Cc1c(-c2cc3nc(Nc4ccc(C5CCN(C)C5=O)cc4)ncc3cc2F)cnc2c1NCCO2 (single isomer, unassigned) [Compound 1-127, (R of S)-3-(4-{[6-fluoro-7-(8-methyl-2,3-dihydro-1H-pyrido[2,3-b][1,4]oxazin-7-yl)quinazolin-2-yl]amino}phenyl)-1-methylpyrrolidin-2-one] | 0.949 nM |
| Cc1c(-c2cc3nc(Nc4cncnc4)ncc3c(N)c2F)cnc2c1NCCO2 [Compound 2-19, 6-fluoro-7-(8-methyl-2,3-dihydro-1H-pyrido[2,3-b][1,4]oxazin-7-yl)-N~2~- (pyrimidin-5-yl)quinazoline-2,5-diamine] | 1.34 nM |
| CNC(=O)c1ccc(Nc2ncc3c(N)cc(N4C(=O)OC[C@@H]4C)cc3n2)cc1 [Compound 3-79] | 0.255 nM |
| COc1cc2c(cc1Nc1ncc3ccc(-c4ccncc4)cc3n1)CNCC2 [Compound 1-46, N-(6-methoxy-1,2,3,4-tetrahydroisoquinolin-7-yl)-7-(pyridin-4-yl)quinazolin-2-amine] | 59.4 nM |
| Cc1c(-c2cc3nc(Nc4cc5c(cc4C(N)=O)CCN(C)C5)ncc3c(N)c2F)cnc2c1NCCO2 [Compound 2-87, 7-((5-amino-6-fluoro-7-(8-methyl-2,3-dihydro-1H-pyrido[2,3-b][1,4]oxazin-7-yl)quinazolin-2-yl)amino)-2-methyl-1,2,3,4-tetrahydroisoquinoline-6-carboxamide] | 100 nM |
| COc1cc2c(cc1Nc1ncc3ccc(-c4ccccc4)cc3n1)CN(C)CC2 [Compound 1-1, N-(6-methoxy-2-methyl-1,2,3,4-tetrahydroisoquinolin-7-yl)-7-phenylquinazolin-2-amine] | 140 nM |
| Cc1c(-c2c(F)c(N)c3cnc(Nc4ccc5c(c4)CN(C)CC5)nc3c2Cl)cnc2c1NCCO2 [Compound 2-95, (+ or −)-8-chloro-6-fluoro-7-(8-methyl-2,3-dihydro-1H-pyrido[2,3-b][1,4]oxazin-7-yl)-N~2~- (2-methyl-1,2,3,4-tetrahydroisoquinolin-7-yl)quinazoline-2,5-diamine] | 0.0589 nM |
| Cc1c(-c2c(F)c(N)c3cnc(Nc4ccc(S(C)(=O)=O)cc4)nc3c2Cl)cnc2c1NCCO2 [Compound 2-103, (+ or −)-8-chloro-6-fluoro-7-(8-methyl-2,3-dihydro-1H-pyrido[2,3-b][1,4]oxazin-7-yl)-N~2~- [4-(methylsulfonyl)phenyl] quinazoline-2,5-diamine] | 0.0946 nM |
| COc1cc2c(cc1Nc1ncc3ccc(-c4cc(C#N)ccc4F)cc3n1)CNCC2 [Compound 1-90, 4-fluoro-3-{2-[(6-methoxy-1,2,3,4-tetrahydroisoquinolin-7-yl)amino]quinazolin-7-yl}benzonitrile] | 393 nM |
| CC(=O)NC1CCc2cc(Nc3ncc4c(N)c(F)c(-c5cnc6c(c5C)NCCO6)cc4n3)ccc21 (single isomer, unassigned) [Compound 2-10, (S or R)—N-(5-((5-amino-6-fluoro-7-(8-methyl-2,3-dihydro-1H-pyrido[2,3-b][1,4]oxazin-7-yl)quinazolin-2-yl)amino)-2,3-dihydro-1H-inden-1-yl)acetamide] | 0.125 nM |
| CNC(=O)c1ccc(Nc2ncc3c(N)c(F)c(-c4cnc5c(c4C)NCCO5)cc3n2)c(OC)c1 [Compound 2-74, 4-{[5-amino-6-fluoro-7-(8-methyl-2,3-dihydro-1H-pyrido[2,3-b][1,4]oxazin-7-yl)quinazolin-2-yl]amino}-3-methoxy-N-methylbenzamide] | 0.266 nM |
